Measurements as given in the supplement of paper PMC10307832.

What was measured:
Assay in all cases: relative viability (nuclei count vs DMSO), 5 days (fraction); higher = more cells survive
201T = tested on: 201T
In short: (§1)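 Cells from lung cancer lines were seeded into 1536-well plates and, one day later, dosed by pin tool. Treatments were either a single drug or a fixed dose of an anchor drug with five library-drug doses (not always all listed) in √10 steps. After 5 days, nuclei were stained in a one-step fixation (final 0.05% Triton X-100, 1% formaldehyde, 1 ug/ml Hoechst) and counted on 4× images, and relative viability is the treated-to-vehicle nuclei ratio, as the median of duplicate plates.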

BEN = tested on: BEN
In short: as §1

EPLC-272H = tested on: EPLC-272H
In short: as §1

HCC-15 = tested on: HCC-15
In short: as §1

HCC-78 = tested on: HCC-78
In short: as §1

LCLC-97TM1 = tested on: LCLC-97TM1
In short: as §1

LU99A = tested on: LU99A
In short: as §1

NCI-H1355 = tested on: NCI-H1355
In short: as §1

NCI-H1395 = tested on: NCI-H1395
In short: as §1

NCI-H2009 = tested on: NCI-H2009
In short: as §1

NCI-H2085 = tested on: NCI-H2085
In short: as §1

NCI-H2126 = tested on: NCI-H2126
In short: as §1

NCI-H2228 = tested on: NCI-H2228
In short: as §1

NCI-H23 = tested on: NCI-H23
In short: as §1

NCI-H2405 = tested on: NCI-H2405
In short: as §1

NCI-H322M = tested on: NCI-H322M
In short: as §1

NCI-H460 = tested on: NCI-H460
In short: as §1

NCI-H647 = tested on: NCI-H647
In short: as §1

NCI-H650 = tested on: NCI-H650
In short: as §1

NCI-H661 = tested on: NCI-H661
In short: as §1

NCI-H838 = tested on: NCI-H838
In short: as §1

PC-14 = tested on: PC-14
In short: as §1

Cc1cn(-c2cc(NC(=O)c3ccc(C)c(Nc4nccc(-c5cccnc5)n4)c3)cc(C(F)(F)F)c2)cn1 [Nilotinib] + CS(=O)(=O)N1CCN(Cc2cc3nc(-c4cccc5[nH]ncc45)nc(N4CCOCC4)c3s2)CC1 [Pictilisib] (partner 1 µM)
relative viability (201T; first compound 0.001 µM): 0.732 | relative viability (201T; first compound 0.003162 µM): 0.742 | relative viability (201T; first compound 0.01 µM): 0.531 | relative viability (201T; first compound 0.1 µM): 0.459 | relative viability (BEN; first compound 0.001 µM): 0.588 | relative viability (BEN; first compound 0.003162 µM): 0.552 | relative viability (BEN; first compound 0.01 µM): 0.574 | relative viability (BEN; first compound 0.1 µM): 0.556 | relative viability (EPLC-272H; first compound 0.001 µM): 0.273 | relative viability (EPLC-272H; first compound 0.003162 µM): 0.308 | relative viability (EPLC-272H; first compound 0.01 µM): 0.258 | relative viability (EPLC-272H; first compound 0.03162 µM): 0.338 | relative viability (EPLC-272H; first compound 0.1 µM): 0.258 | relative viability (HCC-15; first compound 0.001 µM): 0.703 | relative viability (HCC-15; first compound 0.003162 µM): 0.874 | relative viability (HCC-15; first compound 0.01 µM): 0.843 | relative viability (HCC-15; first compound 0.03162 µM): 0.542 | relative viability (HCC-15; first compound 0.1 µM): 0.301 | relative viability (HCC-78; first compound 0.001 µM): 0.211 | relative viability (HCC-78; first compound 0.003162 µM): 0.178 | relative viability (HCC-78; first compound 0.01 µM): 0.198 | relative viability (HCC-78; first compound 0.03162 µM): 0.202 | relative viability (HCC-78; first compound 0.1 µM): 0.224 | relative viability (LCLC-97TM1; first compound 0.001 µM): 0.184 | relative viability (LCLC-97TM1; first compound 0.003162 µM): 0.213 | relative viability (LCLC-97TM1; first compound 0.01 µM): 0.16 | relative viability (LCLC-97TM1; first compound 0.03162 µM): 0.167 | relative viability (LCLC-97TM1; first compound 0.1 µM): 0.123 | relative viability (LU99A; first compound 0.001 µM): 0.295 | relative viability (LU99A; first compound 0.003162 µM): 0.412 | relative viability (LU99A; first compound 0.01 µM): 0.328 | relative viability (LU99A; first compound 0.03162 µM): 0.342 | relative viability (LU99A; first compound 0.1 µM): 0.277 | relative viability (NCI-H1355; first compound 0.001 µM): 0.399 | relative viability (NCI-H1355; first compound 0.003162 µM): 0.468 | relative viability (NCI-H1355; first compound 0.01 µM): 0.371 | relative viability (NCI-H1355; first compound 0.03162 µM): 0.421 | relative viability (NCI-H1355; first compound 0.1 µM): 0.19 | relative viability (NCI-H1395; first compound 0.001 µM): 0.711 | relative viability (NCI-H1395; first compound 0.003162 µM): 0.581 | relative viability (NCI-H1395; first compound 0.01 µM): 0.566 | relative viability (NCI-H1395; first compound 0.03162 µM): 0.552 | relative viability (NCI-H1395; first compound 0.1 µM): 0.401 | relative viability (NCI-H2009; first compound 0.001 µM): 0.79 | relative viability (NCI-H2009; first compound 0.003162 µM): 0.913 | relative viability (NCI-H2009; first compound 0.01 µM): 0.958 | relative viability (NCI-H2009; first compound 0.03162 µM): 0.655 | relative viability (NCI-H2009; first compound 0.1 µM): 0.187 | relative viability (NCI-H2085; first compound 0.001 µM): 0.435 | relative viability (NCI-H2085; first compound 0.003162 µM): 0.457 | relative viability (NCI-H2085; first compound 0.01 µM): 0.402 | relative viability (NCI-H2085; first compound 0.03162 µM): 0.466 | relative viability (NCI-H2085; first compound 0.1 µM): 0.405 | relative viability (NCI-H2126; first compound 0.001 µM): 0.494 | relative viability (NCI-H2126; first compound 0.003162 µM): 0.501 | relative viability (NCI-H2126; first compound 0.01 µM): 0.393 | relative viability (NCI-H2126; first compound 0.03162 µM): 0.546 | relative viability (NCI-H2126; first compound 0.1 µM): 0.378 | relative viability (NCI-H2228; first compound 0.001 µM): 0.27 | relative viability (NCI-H2228; first compound 0.003162 µM): 0.402 | relative viability (NCI-H2228; first compound 0.01 µM): 0.31 | relative viability (NCI-H2228; first compound 0.03162 µM): 0.356 | relative viability (NCI-H2228; first compound 0.1 µM): 0.397 | relative viability (NCI-H23; first compound 0.001 µM): 0.411 | relative viability (NCI-H23; first compound 0.003162 µM): 0.498 | relative viability (NCI-H23; first compound 0.01 µM): 0.546 | relative viability (NCI-H23; first compound 0.03162 µM): 0.348 | relative viability (NCI-H23; first compound 0.1 µM): 0.403 | relative viability (NCI-H2405; first compound 0.001 µM): 0.426 | relative viability (NCI-H2405; first compound 0.003162 µM): 0.404 | relative viability (NCI-H2405; first compound 0.01 µM): 0.315 | relative viability (NCI-H2405; first compound 0.03162 µM): 0.296 | relative viability (NCI-H2405; first compound 0.1 µM): 0.345 | relative viability (NCI-H322M; first compound 0.001 µM): 0.651 | relative viability (NCI-H322M; first compound 0.003162 µM): 0.503 | relative viability (NCI-H322M; first compound 0.03162 µM): 0.529 | relative viability (NCI-H322M; first compound 0.1 µM): 0.528 | relative viability (NCI-H460; first compound 0.001 µM): 0.356 | relative viability (NCI-H460; first compound 0.003162 µM): 0.41 | relative viability (NCI-H460; first compound 0.01 µM): 0.402 | relative viability (NCI-H460; first compound 0.03162 µM): 0.263 | relative viability (NCI-H460; first compound 0.1 µM): 0.418 | relative viability (NCI-H647; first compound 0.001 µM): 0.528 | relative viability (NCI-H647; first compound 0.003162 µM): 0.452 | relative viability (NCI-H647; first compound 0.01 µM): 0.38 | relative viability (NCI-H647; first compound 0.03162 µM): 0.43 | relative viability (NCI-H647; first compound 0.1 µM): 0.397 | relative viability (NCI-H650; first compound 0.001 µM): 0.817 | relative viability (NCI-H650; first compound 0.003162 µM): 0.775 | relative viability (NCI-H650; first compound 0.01 µM): 0.841 | relative viability (NCI-H650; first compound 0.03162 µM): 0.853 | relative viability (NCI-H650; first compound 0.1 µM): 0.767 | relative viability (NCI-H661; first compound 0.001 µM): 0.396 | relative viability (NCI-H661; first compound 0.003162 µM): 0.38 | relative viability (NCI-H661; first compound 0.01 µM): 0.438 | relative viability (NCI-H661; first compound 0.03162 µM): 0.325 | relative viability (NCI-H661; first compound 0.1 µM): 0.391 | relative viability (NCI-H838; first compound 0.001 µM): 0.408 | relative viability (NCI-H838; first compound 0.003162 µM): 0.491 | relative viability (NCI-H838; first compound 0.01 µM): 0.335 | relative viability (NCI-H838; first compound 0.03162 µM): 0.41 | relative viability (NCI-H838; first compound 0.1 µM): 0.336 | relative viability (PC-14; first compound 0.003162 µM): 0.83 | relative viability (PC-14; first compound 0.01 µM): 0.841 | relative viability (PC-14; first compound 0.03162 µM): 0.503 | relative viability (PC-14; first compound 0.1 µM): 0.664
